For data set [1], the system named is liver disorder induced by carbon tetrachloride. In words: Effect on liver disorder induced by carbon tetrachloride in rats, serum GOT, GPT, AlP, bilirubin (Example 26). In kind it is in vivo, SLC-Wistar male rats. Here is the method: (§1) Effect of the compounds according to the present invention on liver disorder induced by carbon tetrachloride
(§2) The effects of the sample compounds to be tested on hepatic disorder were evaluated by determining the levels of GOT, GPT, AlP, and bilirubin, which are known as an indicator of hepatic disorder, in serum, after administering carbon tetrachloride and the sample compounds to SLC-Wistar male rats (9 weeks old and body weight of 210 to 250 g in Tables 1, 3, and 4, and 10 weeks old and body weight of 230 to 260 g in Table 2) as follows.
(§3) Five rats were used in each test group. The sample compound (i.e., each compound listed below) was suspended at a concentration of 40 mg/ml in a 0.1% aqueous solution of Tween-80 (i.e., nonionic surfactant available from Atlas Powder Co., Ltd.). The resultant suspension was orally administered at a dose of 200 mg/kg each at 25 hours and 1 hour before the administration of carbon tetrachloride, except for the control group. For the control group to which only carbon tetrachloride was administered in the evaluation test, a 0.1% aqueous Tween-80 was orally administered at a dose of 5 ml/kg in the same manner.
(§4) Carbon tetrachloride was intraperiotoneally administered as a 10% olive oil solution at a dose of 5 ml/kg (0.5 ml/kg in terms of CC14) one hour after the final administration of the sample compound. For the control (normal) group, olive oil was intraperitoneally administered in the same manner at a dose of 5 ml/kg.
(§5) Blood samples were collected from the carotid artery under pentobarbital anesthesia, 24 hours after the administration of carbon tetrachloride. The rats were fasted for 18 to 22 hours before collecting the blood samples.
(§6) The determination of GOT and GPT in serum was carried out according to a UV method, the determination of AlP was carried cut according to Bessy-Lowry method, and the determination of bilirubin was carried out according to a diazo method.

A short description of data set [2]: Acute toxicity, oral LD50 in rats (Example 28). As to conditions: rat, in vivo, male rats 5 weeks old, 130 to 150 g, observed for one week. The text has this:
Acute toxicity of the compounds according to the present invention

The subject of data set [3] is liver disorder induced by carbon tetrachloride. In words: Effect on liver disorder induced by carbon tetrachloride in rats, repeat with 8 weeks old rats (Example 27). Type of data set: in vivo, SLC-Wistar male rats. As to conditions: serum 24 hours after CCl4, 200 mg/kg orally x2, rats 8 weeks old. Here is the method:
as §2, §3, §4, §5, §6, §1
The evaluation tests of Example 26 were repeated except that SLC-Wistar male rats (8 weeks old and body weight of 170 to 210 g) were used.

[4] abbreviates: Table 1, serum 24 hours after CCl4 0.5 ml/kg i.p., compound 200 mg/kg orally 25 hours and 1 hour before CCl4, rats 9 weeks old, CCl4 only 17327 ± 2336, normal 76 ± 1.
The mark [5] stands for this setting: Table 1, serum 24 hours after CCl4, 200 mg/kg orally x2, rats 9 weeks old, CCl4 only 0.62 ± 0.30, normal 0.10 ± 0.00.
Where [6] appears, read: Table 1, serum 24 hours after CCl4, 200 mg/kg orally x2, rats 9 weeks old, CCl4 only 35.5 ± 2.5, normal 23.6 ± 0.4.
The mark [7] stands for this setting: Table 1, serum 24 hours after CCl4, 200 mg/kg orally x2, rats 9 weeks old, CCl4 only 10496 ± 1221, normal 31 ± 2.
The mark [8] stands for this setting: Table 4, serum 24 hours after CCl4, 200 mg/kg orally x2, rats 9 weeks old, CCl4 only 0.38 ± 0.04, normal 0.10 ± 0.00.
Setting [9] is: Table 4, serum 24 hours after CCl4, 200 mg/kg orally x2, rats 9 weeks old, CCl4 only 35.0 ± 2.0, normal 24.4 ± 0.7.
The mark [10] stands for this setting: Table 4, serum 24 hours after CCl4, 200 mg/kg orally x2, rats 9 weeks old, CCl4 only 10523 ± 2313, normal 31 ± 3.
[11] abbreviates: Table 4, serum 24 hours after CCl4, 200 mg/kg orally x2, rats 9 weeks old, CCl4 only 17704 ± 4140, normal 76 ± 4.
Setting [12] is: Table 3, serum 24 hours after CCl4, 200 mg/kg orally x2, rats 9 weeks old, CCl4 only 0.38 ± 0.06, normal 0.22 ± 0.04.
Where [13] appears, read: Table 3, serum 24 hours after CCl4, 200 mg/kg orally x2, rats 9 weeks old, CCl4 only 34.4 ± 2.6, normal 27.0 ± 0.5.
Where [14] appears, read: Table 3, serum 24 hours after CCl4, 200 mg/kg orally x2, rats 9 weeks old, CCl4 only 9188 ± 1815, normal 30 ± 2.
Setting [15] is: Table 3, serum 24 hours after CCl4, 200 mg/kg orally x2, rats 9 weeks old, CCl4 only 13189 ± 2205, normal 81 ± 3.
Where [16] appears, read: Table 5, 170 to 210 g, CCl4 only 27875 ± 3628, normal 78 ± 3.
The mark [17] stands for this setting: Table 5, CCl4 only 0.55 ± 0.16, normal 0.10 ± 0.00.
Setting [18] is: Table 5, CCl4 only 41.3 ± 2.5, normal 25.7 ± 0.4.
[19] abbreviates: Table 5, CCl4 only 12984 ± 1465, normal 30 ± 3.

Each structure is given as a SMILES string.

By LD50 is commonly meant the dose expected to kill half of the subjects tested. Low values mean greater toxicity, high ones lower toxicity.

In turn, `CC(=O)C1=C(C)NC(C)=C(C#N)C1C1=COCCO1` (stereo not drawn) [Sample Compound B, 3-acetyl-5-cyano-4-[2-(5,6-dihydro-p-dioxinyl)]-2,6-dimethyl-l,4-dihydropyridine] yielded a GOT in data set [1] (setting [4]) of 1604 ± 569 K.U. The compound further displayed a Bilirubin in data set [1] (setting [5]) of 0.20 ± 0.00 mg/dL. For the same compound, the AlP in data set [1] (setting [6]) came to 34.1 ± 3.4 K-AU. Besides, the GPT in data set [1] (setting [7]) worked out at 1023 ± 368 K.U.

As to `COC(=O)C1=C(C)NC(C)=C(C#N)C1C1=COCCO1` (stereo not drawn) [Sample Compound C, methyl 5-cyano-4-[2-(5,6-dihydro-p-dioxinyl)]-2,6-dimethyl-1,4-dihydropyridine-3-carboxylate], the GOT in data set [1] (Table 2, serum 24 hours after CCl4, 200 mg/kg orally x2, rats 10 weeks old, 230 to 260 g, CCl4 only 20701 ± 2821, normal 89 ± 12) came out at 1447 ± 313 K.U. The compound further showed a Bilirubin in data set [1] (Table 2, serum 24 hours after CCl4, 200 mg/kg orally x2, rats 10 weeks old, CCl4 only 0.40 ± 0.09, normal 0.10 ± 0.00) of 0.20 ± 0.00 mg/dL. This compound also returned an AlP in data set [1] (Table 2, serum 24 hours after CCl4, 200 mg/kg orally x2, rats 10 weeks old, CCl4 only 32.3 ± 2.8, normal 22.7 ± 0.6) of 31.7 ± 3.2 K-AU. In data set [1] (Table 2, serum 24 hours after CCl4, 200 mg/kg orally x2, rats 10 weeks old, CCl4 only 11034 ± 1354, normal 41 ± 3), this compound registered a GPT of 912 ± 198 K.U.

`COCC(C)OC(=O)C1=C(C)NC(C)=C(C(=O)OC(C)COC)C1C1=COCCO1` (stereo not drawn) [Sample Compound D, bis(1-methyl-2-methoxyethyl) 4-[2-(5,6-dihydro-p-dioxinyl)]-2,6-dimethyl-l,4-dihydropyridine-3,5-dicarboxylate] registered a GOT in data set [1] (setting [4]) of 2572 ± 518 K.U. The compound further gave a Bilirubin in data set [1] (setting [5]) of 0.20 ± 0.00 mg/dL. The AlP in data set [1] (setting [6]) is recorded as 31.0 ± 1.5 K-AU. The compound further came in with a GPT in data set [1] (setting [7]) of 2050 ± 419 K.U.

On to `CC1=C(C(=O)OC(C)C)C(C2=COCCO2)C(C(=O)OC(C)C)=C(C)N1` [Sample Compound G], for which, in data set [1] (setting [8]), the Bilirubin stood at 0.22 ± 0.02 mg/dL. Further, in data set [1] (setting [9]), the AlP was determined as 31.5 ± 1.2 K-AU. The GPT in data set [1] (setting [10]) is listed as 2994 ± 638 K.U. This compound also returned a GOT in data set [1] (setting [11]) of 3482 ± 707 K.U.

In turn, `C=CCOC(=O)C1=C(C)NC(C)=C(C(=O)OCC=C)C1C1=COCCO1` [Sample Compound H, diallyl 4-[2-(5,6-dihydro-p-dioxinyl)]-2,6-dimethyl-l,4-dihydropyridine-3,5-dicarboxylate] showed an LD50 at 168 h in data set [2] above 1000 mg/kg. In data set [1] (setting [8]), this compound had a Bilirubin of 0.22 ± 0.04 mg/dL. This compound came in with an AlP in data set [1] (setting [9]) of 29.5 ± 2.4 K-AU. In data set [1] (setting [10]), this compound registered a GPT of 1453 ± 699 K.U. Besides, the GOT in data set [1] (setting [11]) came to 1920 ± 881 K.U.

As for `COC(=O)C1=C(C)NC(C)=C(C(=O)OC(C)C)C1C1=COCCO1` (stereo not drawn) [Sample Compound K, isopropyl methyl 4-[2-(5,6-dihydro-p-dioximyl)]-2,6-dimethyl-1,4-dihydropyridine-3,5-dicarboxylate], the Bilirubin in data set [1] (setting [8]) stood at 0.24 ± 0.02 mg/dL. In data set [1] (setting [9]), this compound returned an AlP of 29.6 ± 0.8 K-AU. In data set [1] (setting [10]), the GPT was 1657 ± 436 K.U. In data set [1] (setting [11]), the GOT is given as 2290 ± 619 K.U.

In data set [1] (setting [8]), `COC(=O)C1=C(C)NC(C)=C(C(C)=O)C1C1=COCCO1` (stereo not drawn) [Sample Compound M, methyl 5-acetyl-4-[2-(5,6-dihydro-p-dioxinyl)]-2,6-dimethyl-l,4-dihydropyridine-3-carboxylate] came in with a Bilirubin of 0.20 ± 0.00 mg/dL. Moreover, the AlP in data set [1] (setting [9]) is 29.1 ± 1.1 K-AU. In data set [1] (setting [10]), this compound displayed a GPT of 428 ± 88 K.U. In addition, in data set [1] (setting [11]), the GOT was 807 + 176 K.U.

`COCCOC(=O)C1=C(C)NC(C)=C(C(C)=O)C1C1=COCCO1` (stereo not drawn) [Sample Compound N, 2-methoxyethyl 5-acetyl-4-[2-(5,6-dihydro-p-dioxinyl)]-2,6-dimethyl-1,4-dihydropyridine-3-carboxylate]: the Bilirubin in data set [1] (setting [8]) turned out to be 0.18 ± 0.02 mg/dL. Moreover, the AlP in data set [1] (setting [9]) was determined as 28.5 ± 1.7 K-AU. This compound also yielded a GPT in data set [1] (setting [10]) of 2860 ± 858 K.U. Also, the GOT in data set [1] (setting [11]) is 3430 ± 922 K.U.

For the compound `CC(=O)C1=C(C)NC(C)=C(C(C)=O)C1C1=COCCC1` [Sample Compound P, 3,5-diacetyl-4-[5-(3,4-dihydro-2H-pyranyl)]-2,6-dimethyl-1,4-dihydropyridine], the Bilirubin in data set [1] (setting [12]) was determined as 0.32 ± 0.02 mg/dL. The compound also came in with an AlP in data set [1] (setting [13]) of 35.1 ± 1.4 K-AU. In data set [1] (setting [14]), this compound showed a GPT of 616 ± 193 K.U. Further, in data set [1] (setting [15]), the GOT was found to be 899 ± 252 K.U.

Take `CC(=O)C1=C(C)NC(C)=C(C(C)=O)C1C1=CSCCS1` [Sample Compound Q, 3,5-diacetyl-4-[2-(5,6-dihydro-1,4-dithiinyl)]-2,6-dimethyl-1,4-dihydropyridine]: the Bilirubin in data set [1] (setting [12]) stood at 0.26 ± 0.02 mg/dL. In data set [1] (setting [13]), this compound displayed an AlP of 29.8 ± 1.3 K-AU. The compound also gave a GPT in data set [1] (setting [14]) of 1891 ± 357 K.U. Besides, the GOT in data set [1] (setting [15]) is 2583 ± 540 K.U.

Compound `COCOC(=O)C1=C(C)N(COC)C(C)=C(C(=O)OCOC)C1C1=COCCO1` [Sample Compound S, bis(methoxymethyl) 4-[2-(5,6-dihydro-p-dioxinyl)]-1-methoxymethyl-2,6-dimethyl-1,4-dihydropyridine-3,5-dicarboxylate] showed a GOT in data set [3] (setting [16]) of 461 ± 162 K.U. Also, the Bilirubin in data set [3] (setting [17]) was 0.10 ± 0.00 mg/dL. The compound further had an AlP in data set [3] (setting [18]) of 26.3 ± 0.8 K-AU. In data set [3] (setting [19]), this compound gave a GPT of 313 ± 120 K.U.

Turning to `COC(=O)C1=C(C)NC(C)=C(C(=O)OC)C1C1=C(C)OC(C)CO1` (stereo not drawn) [Sample Compound T, dimethyl 2,6-dimethyl-4-[2-(3,5-dimethyl-5,6-dihydro-p-dioxinyl)] -1,4-dihydropyridine-3,5-dicarbcxylate], in data set [3] (setting [16]), the GOT is 5538 ± 954 K.U. For the same compound, the Bilirubin in data set [3] (setting [17]) came to 0.25 ± 0.03 mg/dL. For the same compound, the AlP in data set [3] (setting [18]) stood at 34.4 ± 1.7 K-AU. Also, the GPT in data set [3] (setting [19]) is 4156 ± 196 K.U.

Consider `COCOC(=O)C1=C(C)NC(C)=C(C(=O)OCOC)C1C1=C(C)OC(C)CO1` (stereo not drawn) [Sample Compound U, bis (methcxymethyl) 2,6-dimethyl-4-[2-(3,5-dimethyl-5,6-dihydro-p-dioxinyl)]-1,4-dihydropyridine-3,5-dicarboxylate], for which the GOT in data set [3] (setting [16]) came to 608 ± 214 K.U. For the same compound, in data set [3] (setting [17]), the Bilirubin was determined as 0.10 ± 0.00 mg/dL. In data set [3] (setting [18]), this compound showed an AlP of 27.0 ± 1.0 K-AU. In data set [3] (setting [19]), this compound returned a GPT of 384 ± 135 K.U.

Consider `CC(=O)C1=C(C)NC(C)=C(C(C)=O)C1C1=C(C)OCCO1` [Sample Compound W, 3,5-diacetyl-2,6-dimethyl-4-[2-(3-methyl-5,6-dihydro-p-dioxinyl)]-1,4-dihydropyridine], for which, in data set [3] (Table 6, CCl4 only 0.50 ± 0.08, normal 0.12 ± 0.02), the Bilirubin came to 0.20 ± 0.00 mg/dL. In data set [3] (Table 6, CCl4 only 52.5 ± 2.2, normal 36.3 ± 1.6), the AlP is recorded as 49.5 ± 3.0 K-AU. In data set [3] (Table 6, CCl4 only 12606 ± 1688, normal 39 ± 4), this compound came in with a GPT of 805 ± 195 K.U. For the same compound, in data set [3] (Table 6, CCl4 only 23424 ± 3360, normal 79 ± 2), the GOT is 1194 ± 234 K.U.

For the origin of these results see patent EP0118120A2, “1,4-Dihydropyridine compound” (priority 1983, dated 1984).
